The subject of the assay is tinnitus. The assay can be described thus: clinical use of intranasal oxytocin formulations to treat tinnitus. The class given is in vivo, human. The source says: In an aspect, this disclosure provides a method for treating tinnitus. The method comprises administering intranasally to an individual a composition comprising or consisting essentially of oxytocin, wherein such administration results in treatment of tinnitus. The effectiveness of treatment of tinnitus may be monitored by quantifying tinnitus, such as by self-evaluation using clinically accepted techniques. An example is the Tinnitus Handicap Inventory (“THI”), a validated and published measurement technique. (Newman et al., Arch Otolaryngol Head Neck Surg, 1996, February 122(2), 143-8). In an embodiment, the improvement in an individual using THI may comprise an improvement of at least 10%. In various embodiments, the improvement may comprise from 10-100%, such as at least 20, 30, 40, 50, 60, 70, 80, 90, 95, or 99%. This example describes clinical use of the present formulations to treat tinnitus. […] The formulation contained oxytocin, magnesium chloride, citric acid, and sodium citrate in sterile water. […] The dose was then increased to 45 IU (3 sprays of 15 IU) 4 times daily. […] A thickener was then added to the formulation keeping the oxytocin amount the same. […] Their score on the Tinnitus Handicap Inventory reduced from a pretreatment score of 96 (meaning a catastrophic level) to a current score of 14 (meaning mild or no tinnitus). The patient has remained improved over 1 year since initiating therapy. Their current dose is 22.5 IU in each nostril 4 times daily. Since their tinnitus occurs in distinct cycles, at times when tinnitus severity is loudest, they increase the dose to 5 times daily for 2 days. […] Their current handicap inventory is 8. […] The dose was increased to 45 IU 4 times daily resulting in a decrease in tinnitus volume by approximately 30%. In another patient, who developed constant tinnitus after a neck injury one year ago, a dose of 45 IU (22.5 IU in each nostril) 4 times daily was used for 30 days and is still ongoing. It has provided about 15% improvement. […] In another patient with constant tinnitus a dose of 30 IU 4 times daily has been started and treatment is ongoing.

Setting [1] is: patient with constant tinnitus, 30 IU 4 times daily, after 2 weeks.
Where [2] appears, read: second patient, 45 IU twice daily.

Some results are limits rather than exact numbers.

As for `CC[C@H](C)[C@@H]1NC(=O)[C@H](Cc2ccc(O)cc2)NC(=O)[C@@H](N)CSSC[C@@H](C(=O)N2CCC[C@H]2C(=O)N[C@@H](CC(C)C)C(=O)NCC(N)=O)NC(=O)[C@H](CC(N)=O)NC(=O)[C@H](CCC(N)=O)NC1=O` [oxytocin], the “time remained improved since initiating therapy” value (first patient) is listed as “over 1 year”. Further, where the note is “first patient, 22.5 IU in each nostril 4 times daily, 5 times daily for 2 days when loudest”, the current handicap inventory came out at 8. Further, for the setting “first patient, 22.5 IU in each nostril 4 times daily, 5 times daily for 2 days when loudest, past 3 months”, the time without tinnitus is not above 10 days. The relief of tinnitus entry (first patient, 45 IU (3 sprays of 15 IU) 4 times daily, no thickener) is given as “significant relief”. In addition, the patient-reported benefit entry (first patient, 60 IU daily (30 IU twice daily), oxytocin, magnesium chloride, citric acid, sodium citrate in sterile water) is given as “partial benefit”. For the same compound, the “score on the Tinnitus Handicap Inventory” value (first patient, formulation with thickener, pretreatment score 96 (catastrophic level)) is 14. In addition, the relief of tinnitus result (first patient, initial dose of less than 20 IU daily, intranasal) was “did not provide any relief”. In addition, the tinnitus free period entry (first patient, thickener added to the formulation, oxytocin amount the same (45 IU 4 times daily)) is recorded as “several days of tinnitus free period”. Moreover, the relief of tinnitus entry (lower amounts of oxytocin (such as under 20 IU per day)) was “did not result in any significant relief”. Besides, the improvement entry (patient with constant tinnitus after neck injury, 45 IU (22.5 IU in each nostril) 4 times daily for 30 days) was “about 15%”. The tinnitus volume entry (patient with constant tinnitus after neck injury, dose raised to 5 times daily on occasions) was “diminished tinnitus volume”. Moreover, under setting [1], the “time without noticing the tinnitus” value is “several hours per day without noticing the tinnitus” and the tinnitus intensity entry is on record as “tinnitus intensity has lowered”. Besides, where the note is “patient with drug-caused tinnitus, 30 IU twice daily”, the benefit entry is reported as “without benefit”. In addition, the “decrease in tinnitus volume” value (patient with drug-caused tinnitus, 45 IU 4 times daily) is “approximately 30%”. In addition, under setting [2], the benefit entry is listed as “significant benefit”, the “reduction of tinnitus volume” value is 45-60%, the “time remaining improved on dosing schedule” value is reported as “more than a year” and the tinnitus free days entry is “some days in which they are tinnitus free”.

For the origin of these results see US11241477B2, “Oxytocin compositions for treatment of tinnitus” (New York University, priority 2019, dated 2022).
